As a reminder, the IC50 is the concentration that inhibits the measured activity by half.

IC50 data for twelve molecules are collected here from patent US11623919B2, “Heterocyclic P2X7 antagonists” (AXXAM S.P.A., priority 2017, dated 2023).

Holding throughout (test): Screen Quest Fluo-8 No Wash Calcium Assay (Bz-ATP evoked Ca2+ influx, FLIPR)
Holding throughout (format): cell-based

Assay [1] concerns the target T1, P2X7 receptor (Homo sapiens, UniProt Q99572).
T1 sequence (Q99572 1-595): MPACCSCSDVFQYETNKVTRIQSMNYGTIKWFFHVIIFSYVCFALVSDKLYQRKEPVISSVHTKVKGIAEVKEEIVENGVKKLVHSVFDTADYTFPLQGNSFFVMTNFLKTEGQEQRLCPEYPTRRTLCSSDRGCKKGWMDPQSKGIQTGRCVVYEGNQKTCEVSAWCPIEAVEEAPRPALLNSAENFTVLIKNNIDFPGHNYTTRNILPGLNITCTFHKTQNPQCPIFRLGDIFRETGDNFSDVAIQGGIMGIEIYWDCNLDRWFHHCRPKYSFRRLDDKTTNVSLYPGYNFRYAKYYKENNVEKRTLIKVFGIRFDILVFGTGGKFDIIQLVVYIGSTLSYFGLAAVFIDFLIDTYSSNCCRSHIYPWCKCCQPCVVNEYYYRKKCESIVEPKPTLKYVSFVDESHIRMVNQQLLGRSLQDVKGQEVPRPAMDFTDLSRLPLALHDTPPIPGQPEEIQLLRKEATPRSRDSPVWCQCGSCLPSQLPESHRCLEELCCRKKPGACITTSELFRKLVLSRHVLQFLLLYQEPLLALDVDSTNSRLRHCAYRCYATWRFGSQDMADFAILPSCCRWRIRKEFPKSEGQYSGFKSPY
Details: hP2X7 (IC50; nM); other: hP2X7; HEK-293 cells stably transfected with P2X7 receptor, Bz-ATP at EC80, Fluo-8 NW; potency. The following applies: hP2X7; HEK-293 cells stably transfected with P2X7 receptor, Bz-ATP at EC80, Fluo-8 NW; potency ranges A-D. Put shortly:
(§1)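 Compounds were added to Fluo-8-loaded P2X7-transfected HEK-293 cells 5 min before an EC80 Bz-ATP challenge, and Ca2+ influx was then recorded for 3 min. Buffer held 0.3 mM Ca2+ and no Mg2+. Inhibition was normalised to A438079, giving IC50 values.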

For assay [2], the target named is T2, P2X7 receptor (Rattus norvegicus, UniProt Q64663).
T2 construct: rP2X7 (IC50; nM); other: rP2X7; HEK-293 cells stably transfected with P2X7 receptor, Bz-ATP at EC80, Fluo-8 NW; potency
T2 sequence (Q64663 1-595): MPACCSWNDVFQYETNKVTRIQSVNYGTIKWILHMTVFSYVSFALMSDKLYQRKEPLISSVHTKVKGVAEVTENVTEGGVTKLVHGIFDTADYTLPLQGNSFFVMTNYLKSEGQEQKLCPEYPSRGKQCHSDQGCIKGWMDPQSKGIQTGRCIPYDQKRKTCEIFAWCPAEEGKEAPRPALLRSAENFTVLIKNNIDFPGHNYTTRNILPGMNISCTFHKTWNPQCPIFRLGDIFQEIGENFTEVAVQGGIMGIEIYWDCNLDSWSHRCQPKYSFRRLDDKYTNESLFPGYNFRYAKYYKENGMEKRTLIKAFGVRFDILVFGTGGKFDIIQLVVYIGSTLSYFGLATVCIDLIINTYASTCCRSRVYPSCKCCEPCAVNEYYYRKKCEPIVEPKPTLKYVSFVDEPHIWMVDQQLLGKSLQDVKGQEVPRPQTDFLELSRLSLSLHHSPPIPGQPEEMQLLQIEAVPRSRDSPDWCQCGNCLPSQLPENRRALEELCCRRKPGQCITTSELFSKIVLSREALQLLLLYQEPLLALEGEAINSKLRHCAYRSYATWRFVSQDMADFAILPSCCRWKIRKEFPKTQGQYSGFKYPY
Particulars: rP2X7; HEK-293 cells stably transfected with P2X7 receptor, Bz-ATP at EC80, Fluo-8 NW; potency ranges A-D. In outline:
as §1

Assay [3] has as its target T3, P2X7 receptor (Mus musculus, UniProt Q9Z1M0).
T3 construct: mP2X7 (IC50; nM); other: mP2X7; HEK-293 cells stably transfected with P2X7 receptor, Bz-ATP at EC80, Fluo-8 NW; potency
T3 sequence (Q9Z1M0 1-595): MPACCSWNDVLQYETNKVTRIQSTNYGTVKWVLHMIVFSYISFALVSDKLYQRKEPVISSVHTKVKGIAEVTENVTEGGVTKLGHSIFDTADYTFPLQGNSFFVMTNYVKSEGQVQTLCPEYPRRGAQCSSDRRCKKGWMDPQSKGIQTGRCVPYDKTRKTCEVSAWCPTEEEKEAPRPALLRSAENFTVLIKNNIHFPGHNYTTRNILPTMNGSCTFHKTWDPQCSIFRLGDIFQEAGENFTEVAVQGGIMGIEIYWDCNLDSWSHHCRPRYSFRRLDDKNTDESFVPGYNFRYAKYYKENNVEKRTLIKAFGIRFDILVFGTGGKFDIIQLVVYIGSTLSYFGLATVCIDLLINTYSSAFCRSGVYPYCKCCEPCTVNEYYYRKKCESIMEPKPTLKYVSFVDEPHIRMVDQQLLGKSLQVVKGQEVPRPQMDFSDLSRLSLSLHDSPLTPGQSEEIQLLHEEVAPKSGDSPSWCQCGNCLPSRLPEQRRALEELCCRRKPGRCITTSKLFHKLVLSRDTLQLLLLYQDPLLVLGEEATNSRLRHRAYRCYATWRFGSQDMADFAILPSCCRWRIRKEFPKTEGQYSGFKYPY
The following applies: mP2X7; HEK-293 cells stably transfected with P2X7 receptor, Bz-ATP at EC80, Fluo-8 NW; potency ranges A-D. In outline:
as §1

For the molecule `Cc1cc(Cn2c(CC3CCC(F)(F)CC3)noc2=O)no1` [Example 169, 3-[(4,4-difluorocyclohexyl)methyl]-4-[(5-methyl-1,2-oxazol-3-yl)methyl]-4,5-dihydro-1,2,4-oxadiazol-5-one], the values for the IC50 on P2X7 receptor [1], on P2X7 receptor [2] and at P2X7 receptor [3] were above 10000 nM, 1000 to 10000 nM and above 10000 nM, respectively.

For the molecule `O=c1onc(CCc2c(F)cccc2Cl)n1CC1CCCCC1` [Example 146, 3-[2-(2-chloro-6-fluorophenyl)ethyl]-4-(cyclohexylmethyl)-1,2,4-oxadiazol-5(4H)-one], the IC50 at P2X7 receptor [1] was 1000 to 10000 nM; on P2X7 receptor [2] it was 1000 to 10000 nM; on P2X7 receptor [3], above 10000 nM.

As for `O=c1onc(Cc2c(F)cccc2Cl)n1CCCC1CCCCC1` [Example 179, 3-[(2-chloro-6-fluorophenyl)methyl]-4-(3-cyclohexylpropyl)-4,5-dihydro-1,2,4-oxadiazol-5-one], the IC50 was 1000 to 10000 nM on P2X7 receptor [1], above 10000 nM on P2X7 receptor [2] and 1000 to 10000 nM at P2X7 receptor [3].

In the case of `O=c1onc(Cc2c(F)cccc2Cl)n1Cc1ccc(C(F)(F)F)cc1` [Example 63, 3-[(2-chloro-6-fluorophenyl)methyl]-4-{[4-(trifluoromethyl)phenyl]methyl}-4,5-dihydro-1,2,4-oxadiazol-5-one], the half-maximal inhibitory concentration (IC50) on P2X7 receptor [1], on P2X7 receptor [2] and on P2X7 receptor [3] was 1000 to 10000 nM each time.

Turning to `O=c1onc(C(O)c2ccc(F)cc2F)n1Cc1c(F)cccc1Cl` (stereo not drawn) [Example 137, 4-[(2-chloro-6-fluorophenyl)methyl]-3-[(2,4-dffluorophenyl)(hydroxy)methyl]-4,5-dihydro-1,2,4-oxadiazol-5-one], the half-inhibitory concentration (IC50) on P2X7 receptor [1], at P2X7 receptor [2] and at P2X7 receptor [3] was 1000 to 10000 nM throughout.

Regarding `Cc1ncccc1Cc1noc(=O)n1Cc1ccc(F)cc1` [Example 216, 4-[(4-fluorophenyl)methyl]-3-[(2-methylpyridin-3-yl)methyl]-4,5-dihydro-1,2,4-oxadiazol-5-one], the IC50 is 1000 to 10000 nM on P2X7 receptor [1], 1000 to 10000 nM at P2X7 receptor [2] and above 10000 nM on P2X7 receptor [3].

Take `O=c1onc(Cc2c(F)cccc2Cl)n1CC1CCC(F)CC1` (stereo not drawn) [Example 185, 3-[(2-chloro-6-fluorophenyl)methyl]-4-[(4-fluorocyclohexyl)methyl]-4,5-dihydro-1,2,4-oxadiazol-5-one]: the IC50 at P2X7 receptor [1], on P2X7 receptor [2] and on P2X7 receptor [3] was below 200 nM throughout.

For the molecule `O=c1onc(Cc2c(F)cccc2Cl)n1CCN1CCCCC1` [Example 143, 3-(2-chloro-6-fluorobenzyl)-4-[2-(piperidin-1-yl)ethyl]-1,2,4-oxadiazol-5(4H)-one], the half-inhibitory concentration (IC50) at P2X7 receptor [1] was in the range of 200 to 1000 nM; on P2X7 receptor [2], 200 to 1000 nM; on P2X7 receptor [3], 1000 to 10000 nM.

Take `O=c1onc(CN2CCOc3ccccc32)n1CC1CCCCC1` [Example 230, 4-(cyclohexylmethyl)-3-(3,4-dihydro-2H-1,4-benzoxazin-4-ylmethyl)-4,5-dihydro-1,2,4-oxadiazol-5-one]: the IC50 at P2X7 receptor [1], at P2X7 receptor [2] and at P2X7 receptor [3] was below 200 nM in each case.

In the case of `O=c1onc(CC2CCC(F)(F)C2)n1Cc1c(F)cccc1Cl` (stereo not drawn) [Example 205, 4-[(2-chloro-6-fluorophenyl)methyl]-3-[(3,3-difluorocyclopentyl)methyl]-4,5-dihydro-1,2,4-oxadiazol-5-one], the IC50 at P2X7 receptor [1] is below 200 nM; at P2X7 receptor [2], below 200 nM; on P2X7 receptor [3], 200 to 1000 nM.

For the molecule `O=c1onc(Cc2ccccc2F)n1Cc1ccc(F)cc1` [Example 75, 3-[(2-fluorophenyl)methyl]-4-[(4-fluorophenyl)methyl]-4,5-dihydro-1,2,4-oxadiazol-5-one], the IC50 at P2X7 receptor [1], on P2X7 receptor [2] and at P2X7 receptor [3] was 1000 to 10000 nM throughout.

With `O=c1onc(CC2CCC(F)(F)CC2)n1Cc1ccc(C(F)(F)F)cc1` [Example 166, 3-[(4,4-difluorocyclohexyl)methyl]-4-{[4-(trifluoromethyl)phenyl]methyl}-4,5-dihydro-1,2,4-oxadiazol-5-one], the IC50 on P2X7 receptor [1], on P2X7 receptor [2] and on P2X7 receptor [3] was 1000 to 10000 nM each time.
